# In patent publication US8952024B2, “Herbicidal pyrimidone derivatives” (E I du Pont de Nemours and Company, priority 2009, dated 2015):
# Tests used:
# Assay type in all cases: in vivo
# [1] = tested on: barnyardgrass (Echinochloa crus-galli); experiment: Test A pre-/postemergence plant response
# Procedure, shortened: (§1)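 Formulated test chemicals (non-phytotoxic solvent, surfactant) were sprayed onto soil right after planting and simultaneously onto young plants at one to two leaves, 2 to 10 cm tall. Plants stayed in the greenhouse about ten days; injury was then visually scored against untreated controls, from 0 (no effect) to 100 (complete control).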
# [2] = tested on: corn (Zea mays); experiment: Test A pre-/postemergence plant response
# Procedure, shortened: as §1
# [3] = tested on: wheat (Triticum aestivum); experiment: Test A pre-/postemergence plant response
# Procedure, shortened: as §1
# [4] = tested on: giant foxtail (Setaria faberii); experiment: Test A pre-/postemergence plant response
# Procedure, shortened: as §1
# [5] = tested on: pigweed (Amaranthus retroflexus); experiment: Test A pre-/postemergence plant response
# Procedure, shortened: as §1
# [6] = tested on: velvetleaf (Abutilon theophrasti); experiment: Test A pre-/postemergence plant response
# Procedure, shortened: as §1
# [7] = tested on: morningglory (Ipomoea spp.); experiment: Test A pre-/postemergence plant response
# Procedure, shortened: as §1
# [8] = tested on: large crabgrass (Digitaria sanguinalis); experiment: Test A pre-/postemergence plant response
# Procedure, shortened: as §1
# [9] = tested on: ducksalad (Heteranthera limosa); experiment: Test B flooded paddy test; settings: for Plant response rating, Flood, Ducksalad: 250 g ai/ha, flooded paddy test, visual rating on 0 to 100 scale (0 no effect, 100 complete control) after 13 to 15 days; for Plant response rating, Ducksalad: Flood (flooded paddy test), 13 to 15 days
# Procedure, shortened: (§2)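 Ratings are visual, 0–100 (100 = complete control), taken versus untreated controls 13 to 15 days after treatment in the greenhouse. Compound went straight into paddy water held 3 cm above soil, applied to 2-leaf-stage plants of four species.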
# [10] = tested on: rice (Oryza sativa); experiment: Test B flooded paddy test; settings: for Plant response rating, Flood, Rice: 250 g ai/ha, flooded paddy test, visual rating on 0 to 100 scale (0 no effect, 100 complete control) after 13 to 15 days; for Plant response rating, Rice: Flood (flooded paddy test), 13 to 15 days
# Procedure, shortened: as §2
# [11] = tested on: canarygrass (Phalaris minor); experiment: Test B postemergence plant response
# From the text: (§3) At the same time, plants selected from these crop and weed species and also winter barley (Hordeum vulgare), canarygrass (Phalaris minor), chickweed (Stellaria media) and windgrass (Apera spica-venti) were planted in pots containing Redi-Earth® planting medium (Scotts Company, 14111 Scottslawn Road, Marysville, Ohio 43041) comprising spaghnum peat moss, vermiculite, wetting agent and starter nutrients and treated with postemergence applications of some of the test chemicals formulated in the same manner. Plants ranged in height from 2 to 18 cm (1- to 4-leaf stage) for postemergence treatments.
# (§4) Treated plants and controls were maintained in a greenhouse for 13 to 15 days, after which time all treated plants were visually evaluated and compared to controls. Plant response ratings, summarized in Table B, are based on a scale of 0 to 100 where 0 is no effect and 100 is complete control. A dash (-) response means no test result.
# [12] = tested on: chickweed (Stellaria media); experiment: Test B postemergence plant response
# From the text: as §3, §4
# [13] = tested on: windgrass (Apera spica-venti); experiment: Test B postemergence plant response
# From the text: as §3, §4
# [14] = Postemergence, 125 g ai/ha, 0 to 100 scale where 0 is no effect and 100 is complete control
# [15] = Postemergence, 500 g ai/ha, 0 to 100 scale, 0 = no effect, 100 = complete control, approx. ten days
# [16] = Preemergence, 125 g ai/ha, 0 to 100 scale, 0 = no effect, 100 = complete control
# [17] = Preemergence, 500 g ai/ha, visual injury, 0 to 100 scale (0 no effect, 100 complete control), approx. ten days
# [18] = 62 g ai/ha, scale of 0 to 100 where 0 is no effect and 100 is complete control
# [19] = 125 g ai/ha, scale 0 to 100, 0 is no effect, 100 is complete control
# [20] = Flood, 31 g ai/ha, scale 0 to 100 (0 no effect, 100 complete control)
# [21] = 31 g ai/ha, postemergence, scale 0 to 100, 0 is no effect, 100 is complete control
# [22] = 62 g ai/ha, postemergence, 0 is no effect, 100 is complete control, 13 to 15 days
# [23] = Postemergence, 125 g ai/ha, visual rating after 13 to 15 days, scale 0 (no effect) to 100 (complete control)
# [24] = Postemergence, 250 g ai/ha, scale 0 to 100 (0 no effect, 100 complete control)
# [25] = Postemergence, 125 g ai/ha, visual injury, 0 to 100 scale (0 no effect, 100 complete control), approx. ten days
# [26] = 31 g ai/ha, scale of 0 to 100 where 0 is no effect and 100 is complete control
# [27] = Postemergence, 62 g ai/ha, scale 0 (no effect) to 100 (complete control), 13 to 15 days
compound,measurement,setting,value
CC(C)CC(=O)OC1=C(C(=O)c2cnc(-c3ccccc3)n(-c3ccccc3)c2=O)C(=O)CCC1 [Compound 83],"Plant response rating, Barnyardgrass",[1]; [14],70
same,"Plant response rating, Barnyardgrass",[1]; [15],90
same,"Plant response rating, Barnyardgrass",[1]; [16],30
same,"Plant response rating, Barnyardgrass",[1]; [17],90
same,"Plant response rating, Corn",[2]; [14],0
same,"Plant response rating, Corn",[2]; [15],30
same,"Plant response rating, Corn",[2]; [16],0
same,"Plant response rating, Corn",[2]; [17],20
same,"Plant response rating, Wheat",[3]; [14],0
same,"Plant response rating, Wheat",[3]; [15],0
same,"Plant response rating, Wheat",[3]; [16],0
same,"Plant response rating, Wheat",[3]; [17],30
same,"Plant response rating, Foxtail, Giant",[4]; [14],70
same,"Plant response rating, Foxtail, Giant",[4]; [15],90
same,"Plant response rating, Foxtail, Giant",[4]; [16],40
same,"Plant response rating, Foxtail, Giant",[4]; [17],90
same,"Plant response rating, Pigweed",[5]; [14],90
same,"Plant response rating, Pigweed",[5]; [15],100
same,"Plant response rating, Pigweed",[5]; [16],80
same,"Plant response rating, Pigweed",[5]; [17],100
same,"Plant response rating, Velvetleaf",[6]; [14],100
same,"Plant response rating, Velvetleaf",[6]; [15],100
same,"Plant response rating, Velvetleaf",[6]; [16],70
same,"Plant response rating, Velvetleaf",[6]; [17],100
same,"Plant response rating, Morningglory",[7]; [14],100
same,"Plant response rating, Morningglory",[7]; [15],100
same,"Plant response rating, Morningglory",[7]; [16],20
same,"Plant response rating, Morningglory",[7]; [17],60
same,"Plant response rating, Crabgrass, Large",[8]; [14],80
same,"Plant response rating, Crabgrass, Large",[8]; [15],90
same,"Plant response rating, Crabgrass, Large",[8]; [16],70
same,"Plant response rating, Crabgrass, Large",[8]; [17],100
same,"Plant response rating, Flood, Ducksalad",[9],50
same,"Plant response rating, Ducksalad",[9]; [18],30
same,"Plant response rating, Ducksalad",[9]; [19],40
same,Ducksalad plant response rating,[9]; [20],20
same,"Plant response rating, Flood, Rice",[10],30
same,"Plant response rating, Rice",[10]; [18],0
same,"Plant response rating, Rice",[10]; [19],0
same,Rice plant response rating,[10]; [20],0
same,"Plant response rating, Canarygrass",[11]; [21],20
same,Canarygrass plant response rating (0 to 100 scale),[11]; [22],20
same,"Plant response rating, Canarygrass",[11]; [23],25
same,"Plant response rating, Canarygrass",[11]; [24],25
same,"Plant response rating, Chickweed",[12]; [21],90
same,Chickweed plant response rating (0 to 100 scale),[12]; [22],90
same,"Plant response rating, Chickweed",[12]; [23],98
same,"Plant response rating, Chickweed",[12]; [24],100
same,"Plant response rating, Windgrass",[13]; [21],5
same,Windgrass plant response rating (0 to 100 scale),[13]; [22],10
same,"Plant response rating, Windgrass",[13]; [24],30
O=C1CCCC(O)=C1C(=O)c1cnc(-c2cccc(Cl)c2)n(-c2ccc(Cl)cc2)c1=O [Compound 64],Barnyardgrass plant response rating,[1]; [25],50
same,"Plant response rating, Barnyardgrass",[1]; [15],90
same,"Plant response rating, Barnyardgrass",[1]; [16],10
same,"Plant response rating, Barnyardgrass",[1]; [17],90
same,Corn plant response rating,[2]; [25],0
same,"Plant response rating, Corn",[2]; [15],60
same,"Plant response rating, Corn",[2]; [16],0
same,"Plant response rating, Corn",[2]; [17],0
same,Wheat plant response rating,[3]; [25],0
same,"Plant response rating, Wheat",[3]; [15],30
same,"Plant response rating, Wheat",[3]; [16],0
same,"Plant response rating, Wheat",[3]; [17],0
same,"Foxtail, Giant plant response rating",[4]; [25],60
same,"Plant response rating, Foxtail, Giant",[4]; [15],80
same,"Plant response rating, Foxtail, Giant",[4]; [16],50
same,"Plant response rating, Foxtail, Giant",[4]; [17],70
same,Pigweed plant response rating,[5]; [25],90
same,"Plant response rating, Pigweed",[5]; [15],100
same,"Plant response rating, Pigweed",[5]; [16],80
same,"Plant response rating, Pigweed",[5]; [17],100
same,Velvetleaf plant response rating,[6]; [25],100
same,"Plant response rating, Velvetleaf",[6]; [15],100
same,"Plant response rating, Velvetleaf",[6]; [16],60
same,"Plant response rating, Velvetleaf",[6]; [17],90
same,Morningglory plant response rating,[7]; [25],90
same,"Plant response rating, Morningglory",[7]; [15],100
same,"Plant response rating, Morningglory",[7]; [16],0
same,"Plant response rating, Morningglory",[7]; [17],0
same,"Crabgrass, Large plant response rating",[8]; [25],80
same,"Plant response rating, Crabgrass, Large",[8]; [15],90
same,"Plant response rating, Crabgrass, Large",[8]; [16],80
same,"Plant response rating, Crabgrass, Large",[8]; [17],90
same,"Plant response rating, Flood, Ducksalad",[9],60
same,"Plant response rating, Ducksalad",[9]; [26],30
same,"Plant response rating, Ducksalad",[9]; [18],30
same,"Plant response rating, Ducksalad",[9]; [19],50
same,"Plant response rating, Flood, Rice",[10],0
same,"Plant response rating, Rice",[10]; [26],0
same,"Plant response rating, Rice",[10]; [18],0
same,"Plant response rating, Rice",[10]; [19],0
same,"Plant response rating, Canarygrass",[11]; [21],40
same,"Plant response rating, Canarygrass",[11]; [27],40
same,"Plant response rating, Canarygrass",[11]; [23],40
same,"Plant response rating, Canarygrass",[11]; [24],60
same,"Plant response rating, Chickweed",[12]; [21],98
same,"Plant response rating, Chickweed",[12]; [27],98
same,"Plant response rating, Chickweed",[12]; [23],98
same,"Plant response rating, Chickweed",[12]; [24],100
same,"Plant response rating, Windgrass",[13]; [21],70
same,"Plant response rating, Windgrass",[13]; [27],90
same,"Plant response rating, Windgrass",[13]; [23],95
same,"Plant response rating, Windgrass",[13]; [24],100
